Data as given in paper PMC12390684 (Viruses, 2025).

What follows are compounds tested against IN-GCN2 interaction (6xHis-IN / GST-GCN2) (UniProt P04585+Q9P2K8) (assay: biochemical). Settings: screen, single dose 100 µM, single replicate; residual AlphaLISA signal normalized to DMSO control.
IN-GCN2 interaction (6xHis-IN / GST-GCN2), sequence (Q9P2K8 192-1024, other chains not shown): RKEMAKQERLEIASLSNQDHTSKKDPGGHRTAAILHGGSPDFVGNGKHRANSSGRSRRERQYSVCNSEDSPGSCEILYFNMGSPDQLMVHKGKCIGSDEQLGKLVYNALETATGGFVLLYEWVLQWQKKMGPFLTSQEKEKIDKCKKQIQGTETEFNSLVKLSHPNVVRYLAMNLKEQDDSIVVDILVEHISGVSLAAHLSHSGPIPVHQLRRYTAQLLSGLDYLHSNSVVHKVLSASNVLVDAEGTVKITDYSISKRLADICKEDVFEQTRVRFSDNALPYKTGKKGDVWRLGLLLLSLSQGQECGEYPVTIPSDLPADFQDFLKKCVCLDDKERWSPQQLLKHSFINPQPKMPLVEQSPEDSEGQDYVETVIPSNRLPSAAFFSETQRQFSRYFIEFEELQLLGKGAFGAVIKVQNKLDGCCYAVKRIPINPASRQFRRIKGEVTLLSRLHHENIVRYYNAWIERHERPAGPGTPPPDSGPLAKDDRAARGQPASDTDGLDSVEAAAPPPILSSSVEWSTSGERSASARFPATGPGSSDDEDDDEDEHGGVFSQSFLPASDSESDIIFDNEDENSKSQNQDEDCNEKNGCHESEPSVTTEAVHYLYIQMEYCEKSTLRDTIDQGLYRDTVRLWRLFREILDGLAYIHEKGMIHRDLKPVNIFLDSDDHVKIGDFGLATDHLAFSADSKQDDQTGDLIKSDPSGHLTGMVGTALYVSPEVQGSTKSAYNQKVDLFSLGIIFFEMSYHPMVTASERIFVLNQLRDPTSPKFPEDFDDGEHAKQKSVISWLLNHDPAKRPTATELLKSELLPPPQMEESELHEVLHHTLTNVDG
Format: binding, HIV-1 IN; human GCN2
For CSC1SC[C@H]2C(=O)N(C)[C@@H](C(C)C)C(=O)OC[C@@H](NC(=O)c3cnc4ccccc4n3)C(=O)N[C@@H](C)C(=O)N(C)[C@@H]1C(=O)N(C)[C@@H](C(C)C)C(=O)OC[C@@H](NC(=O)c1cnc3ccccc3n1)C(=O)N[C@@H](C)C(=O)N2C (stereo partly shown) [NSC526417], the “IN-GCN2 interaction (%)” value was 53.14%.
In the case of Nc1ncnc2c1ncn2[C@@H]1O[C@H](COP(=O)(O)O)[C@@H](O)[C@H]1O [NSC20264], the “IN-GCN2 interaction (%)” value is reported as 82.61%.
With C=C1CCO[C@]2([C@@H](O)[C@@](C)(O)CO)NC(=O)[C@@]1(O)NC2=O [NSC180516] the “IN-GCN2 interaction (%)” value was 114.16%.
For COc1cc2c3c(c4ccc(OC)c(OC)c4c2cc1OC)CN1CCC[C@@H]1C3 [NSC60387], the “IN-GCN2 interaction (%)” value was 110.26%.
For C/C(=C\CC1=C(O)c2ccccc2C(=O)C1=O)CO [NSC24872], the “IN-GCN2 interaction (%)” value was 132.67%.
With CO[C@@H]1/C=C/O[C@@]2(C)Oc3c(C)c(O)c4c(c3C2=O)C(=N[C@@H]2CC[C@@H](O)O[C@H]2C)C=C(NC(=O)/C(C)=C\C(=O)[C@@H]2C[C@@H]2[C@H](O)[C@@H](C)[C@@H](O)[C@@H](C)[C@H](OC(C)=O)[C@@H]1C)C4=O [NSC177383] the “IN-GCN2 interaction (%)” value was 103.89%.
For CC1=C(O)C(=O)C(C2=C(O)C(=O)C(C)=C(O)C2=O)=C(O)C1=O [NSC88466], the “IN-GCN2 interaction (%)” value was 52.93%.
In the case of COC(=O)[C@]1(C)CCC[C@]2(C)C3=CC(=O)[C@@]4(C(C)C)O[C@H]4[C@]3(O)CC[C@@H]12 [NSC337783], the “IN-GCN2 interaction (%)” value is reported as 100.26%.
With COc1c2occc2cc2ccc(=O)oc12 [NSC45923] the “IN-GCN2 interaction (%)” value was 121.17%.
In the case of CO[C@H]1[C@@H](O)[C@@H](C)O[C@H](O[C@H]2[C@H](Oc3cccc4c(O)c5c(=O)oc6ccc(C)c7c(=O)oc(c34)c5c67)O[C@H](C)[C@H](O)[C@@H]2O)[C@@H]1O [NSC5159], the “IN-GCN2 interaction (%)” value is reported as 121.88%.
For CC1CCOC(=O)/C=C/C=C/C(=O)OC2CC3OC4C5OC5(C)C(O)CC4(COC(=O)C1O)C2(C)C31CO1 (stereo not shown) [NSC328166], the “IN-GCN2 interaction (%)” value was 102.91%.
With COc1cc2c(cc1OC)C(c1cc(OC)c(OC)c(OC)c1)C1(O)C(=O)OCC1(O)C2 (stereo not shown) [NSC50132] the “IN-GCN2 interaction (%)” value was 86.33%.
With CN(C)c1ccc2c(SCC(=O)OCC(=O)[C@@]3(O)CC[C@H]4[C@@H]5CCC6=CC(=O)C=C[C@]6(C)[C@H]5C(=O)C[C@@]43C)c3ccc(N(C)C)cc3nc2c1 [NSC337851] the “IN-GCN2 interaction (%)” value was 15.16%.
With C=C1C(=O)O[C@H]2[C@H]1CC/C(C)=C/CC[C@@]1(C)O[C@@H]21 [NSC157035] the “IN-GCN2 interaction (%)” value was 97.44%.
In the case of CC[C@H](C)c1occ2c(O)c(C(=O)O)c(=O)cc-2c1C [NSC114344], the “IN-GCN2 interaction (%)” value is reported as 113.54%.
For COc1c(OC)c2c3c(nccc3c1OC)C(=O)c1ccccc1-2 [NSC785149], the “IN-GCN2 interaction (%)” value was 57.46%.
CC1(C)[C@H](C(=O)O)CC[C@]1(C)C(=O)O [NSC824] was tested, and the “IN-GCN2 interaction (%)” value was 90.14%.
For Nc1ncn([C@@H]2O[C@H](CO)[C@@H](O)[C@H]2O)c(=O)n1 [NSC102816], the “IN-GCN2 interaction (%)” value was 106.78%.
In the case of CC[C@H]1NC(=O)[C@@H](NC(=O)c2ncccc2O)[C@@H](C)OC(=O)[C@H](c2ccccc2)NC(=O)[C@@H]2CC(=O)CCN2C(=O)[C@H](Cc2ccccc2)N(C)C(=O)[C@@H]2CCCN2C1=O [NSC177858], the “IN-GCN2 interaction (%)” value is reported as 35.20%.
For COC1=CC(=O)OC(CCc2ccc3c(c2)OCO3)C1 (stereo not shown) [NSC23878], the “IN-GCN2 interaction (%)” value was 70.38%.
C[C@H]1O[C@@H](O[C@H]2[C@@H](O)C[C@H](O[C@H]3[C@@H](O)C[C@H](O[C@H]4CC[C@@]5(C)[C@H](CC[C@@H]6[C@@H]5CC[C@]5(C)[C@@H](C7=CC(=O)OC7)[C@@H](O)C[C@]65O)C4)O[C@@H]3C)O[C@@H]2C)C[C@H](O)[C@@H]1O [NSC95099] was tested, and the “IN-GCN2 interaction (%)” value was 127.68%.
NC(=O)NCCC[C@H](N)C(=O)O [NSC27425] was tested, and the “IN-GCN2 interaction (%)” value was 90.90%.
For CSC[S@@+]([O-])CC(CO)NC(=O)/C=C/c1c(C)[nH]c(=O)[nH]c1=O (stereo partly shown) [NSC59729], the “IN-GCN2 interaction (%)” value was 102.04%.
In the case of CN1CC(=O)NC1=N [NSC13123], the “IN-GCN2 interaction (%)” value is reported as 106.95%.
In the case of CC1=C2C(=CC(C)(C)[C@@H]2O)C(=O)[C@](C)(O)C12CC2 [NSC400978], the “IN-GCN2 interaction (%)” value is reported as 28.97%.
For C[C@H]1O[C@@H](c2ccc3c(c2O)C(=O)C2=C(C3=O)[C@@]3(O)C(=O)C[C@](C)(O)C[C@@]3(O)C=C2)C[C@@H](O)[C@@H]1O [NSC184398], the “IN-GCN2 interaction (%)” value was 10.15%.
For COc1c(OC)c(OC)c2c3c(cc4ccccc42)NC(=O)C(=O)c13 [NSC785151], the “IN-GCN2 interaction (%)” value was 48.18%.
For COc1cc([C@@H]2c3cc4c(cc3[C@H](O)[C@H]3COC(=O)[C@@H]23)OCO4)cc(OC)c1OC [NSC36407], the “IN-GCN2 interaction (%)” value was 109.04%.
For COc1cc2c(c(OC)c1OC)-c1ccc(OC)c(=O)cc1[C@@H](NC(C)=O)CC2 [NSC757], the “IN-GCN2 interaction (%)” value was 116.47%.
In the case of C[C@H]1CO[C@H]2C3=C(C(=O)C=CC3=O)[C@@H]3OC(=O)[C@H]4CC[C@@H]5[C@H]1CC[C@@]52[C@@H]43 [NSC401005], the “IN-GCN2 interaction (%)” value is reported as 52.24%.
With CC1=C(O)C(=O)C=C2C1=CC=C1[C@@]2(C)CC[C@@]2(C)[C@@H]3C[C@](C)(C(=O)O)CC[C@]3(C)CC[C@]12C [NSC70931] the “IN-GCN2 interaction (%)” value was 100.77%.
With COC(=O)[C@@]12OC[C@]34[C@H]([C@@H](O)[C@@H]1O)[C@@]1(C)CC(=O)C(O)=C(C)[C@@H]1C[C@H]3OC(=O)[C@H](OC(=O)/C=C(\C)C(C)C)[C@@H]24 [NSC165563] the “IN-GCN2 interaction (%)” value was 97.95%.
In the case of O=C(O)CCCCCCC[C@@H](O)[C@@H](O)CCCCCCO [NSC7668], the “IN-GCN2 interaction (%)” value is reported as 129.82%.
For COc1cc2c3cc1Oc1c(O)c(OC)cc4c1[C@H](Cc1ccc(cc1)Oc1cc(ccc1O)C[C@H]3N(C)CC2)N(C)CC4 [NSC93674], the “IN-GCN2 interaction (%)” value was 63.45%.
With COC(=O)C1C(O)C(C)C(O)OC1C(C)C(O)C(C)C=CC=C(C)C(=O)Nc1c(C)c(OC(C)=O)c2c(c1O)C(=O)C(C)=C1OCOC(C(C)=CC(C)=O)=C12 (stereo not shown) [NSC169627] the “IN-GCN2 interaction (%)” value was 26.60%.
In the case of CCC(C)(O)c1cnc(CC(C)C)c(=O)n1O (stereo not shown) [NSC127445], the “IN-GCN2 interaction (%)” value is reported as 137.47%.
With O=c1[nH]cnc2c([C@@H]3O[C@H](CO)[C@@H](O)[C@H]3O)[nH]nc12 [NSC106486] the “IN-GCN2 interaction (%)” value was 77.11%.
With COC(=O)[C@H]1[C@H]2C[C@@H]3c4[nH]c5ccccc5c4CCN3C[C@H]2C[C@@H](OC(=O)c2cc(OC)c(OC)c(OC)c2)[C@@H]1OC [NSC72138] the “IN-GCN2 interaction (%)” value was 30.11%.
For O=P1(N(CCCl)CCCl)NCCCO1 (stereo not shown) [NSC26271], the “IN-GCN2 interaction (%)” value was 117.66%.
O=c1ccc2nc3ccc(O)cc3oc-2c1 [NSC12097] was tested, and the “IN-GCN2 interaction (%)” value was 169.88%.
COc1c2occc2c(OC)c2c(=O)cc(C)oc12 [NSC8519] was tested, and the “IN-GCN2 interaction (%)” value was 129.74%.
C[C@@H]1C[C@H](C)C[C@H](C)[C@@H](O)CC(=O)O[C@H]([C@@H]2CCC[C@H]2C(=O)O)C/C=C/C=C(/C#N)[C@H](O)[C@@H](C)C1 [NSC216128] was tested, and the “IN-GCN2 interaction (%)” value was 89.16%.
With COc1cc2c(cc1OC)[C@@]13CCN4CC5=CCO[C@H]6CC(=O)N2[C@H]1[C@H]6[C@H]5C[C@]43O [NSC99794] the “IN-GCN2 interaction (%)” value was 103.59%.
For CO[C@@H](/C(C)=C/C=C/C(C)=C/c1coc(C)n1)[C@@H](C)[C@@H]1C[C@H](O)[C@@]2(C)O[C@@H]2/C=C/[C@@H](C)[C@H]2C[C@H](CC(=O)O2)C[C@@H]2O[C@H]2C(=O)O1 [NSC332598], the “IN-GCN2 interaction (%)” value was 94.06%.

Same assay, conditions: screen, single dose 100 µM, single replicate; residual AlphaLISA signal normalized to DMSO control; listed as 18805
In the case of CC(C)c1ccc(O)c(=O)cc1 [NSC18805], the “IN-GCN2 interaction (%)” value is reported as 75.92%.

Same assay, conditions: screen, single dose 100 µM, single replicate; residual AlphaLISA signal normalized to DMSO control; listed as 43338
For CC(C)c1ccc(O)c(=O)cc1 [NSC43338], the “IN-GCN2 interaction (%)” value was 100.42%.
